Earlier results on seven compounds are cited in patent US9486463B2, “Chemosensory receptor ligand-based therapies” (AMBRA BIOSCIENCE LLC, priority 2010, dated 2016).

In data set [1] the test system is humans. The note with it: instillation into the duodenum of humans.
The test system of data set [2] is rats.
In data set [3] the test system is humans.
Data set [4] deals with rats. The source holds these as a separate data set.
The test system of data set [5] is humans. This is another data set of the same source.
Data set [6] concerns rats. The source holds these as a separate data set.
Data set [7] deals with patients with jejunostomy.
Data set [8] has as its target T1, sweet receptor (Homo sapiens, UniProt Q7RTX0+Q8TE23).
T1 sequence (Q8TE23 20-839): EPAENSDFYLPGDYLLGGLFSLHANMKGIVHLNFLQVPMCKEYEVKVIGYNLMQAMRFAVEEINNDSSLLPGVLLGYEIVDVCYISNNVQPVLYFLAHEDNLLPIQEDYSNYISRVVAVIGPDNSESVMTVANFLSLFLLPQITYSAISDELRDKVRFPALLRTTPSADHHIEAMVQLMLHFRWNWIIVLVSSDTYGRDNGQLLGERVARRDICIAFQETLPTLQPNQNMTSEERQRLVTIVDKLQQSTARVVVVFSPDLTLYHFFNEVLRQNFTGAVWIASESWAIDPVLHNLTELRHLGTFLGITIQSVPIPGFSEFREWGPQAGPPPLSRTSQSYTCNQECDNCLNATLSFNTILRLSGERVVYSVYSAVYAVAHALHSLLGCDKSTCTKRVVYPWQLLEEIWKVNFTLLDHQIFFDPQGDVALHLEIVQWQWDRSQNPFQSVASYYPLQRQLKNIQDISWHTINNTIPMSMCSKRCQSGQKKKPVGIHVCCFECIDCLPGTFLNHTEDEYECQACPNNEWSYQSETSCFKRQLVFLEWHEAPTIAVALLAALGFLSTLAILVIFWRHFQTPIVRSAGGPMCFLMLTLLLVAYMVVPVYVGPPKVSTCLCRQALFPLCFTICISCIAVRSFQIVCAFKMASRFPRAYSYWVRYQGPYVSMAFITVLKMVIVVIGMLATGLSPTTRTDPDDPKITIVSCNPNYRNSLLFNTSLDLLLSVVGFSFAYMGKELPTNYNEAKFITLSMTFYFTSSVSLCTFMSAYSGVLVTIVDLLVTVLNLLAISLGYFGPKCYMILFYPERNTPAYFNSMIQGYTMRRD
T1 sequence (Q7RTX0 21-852): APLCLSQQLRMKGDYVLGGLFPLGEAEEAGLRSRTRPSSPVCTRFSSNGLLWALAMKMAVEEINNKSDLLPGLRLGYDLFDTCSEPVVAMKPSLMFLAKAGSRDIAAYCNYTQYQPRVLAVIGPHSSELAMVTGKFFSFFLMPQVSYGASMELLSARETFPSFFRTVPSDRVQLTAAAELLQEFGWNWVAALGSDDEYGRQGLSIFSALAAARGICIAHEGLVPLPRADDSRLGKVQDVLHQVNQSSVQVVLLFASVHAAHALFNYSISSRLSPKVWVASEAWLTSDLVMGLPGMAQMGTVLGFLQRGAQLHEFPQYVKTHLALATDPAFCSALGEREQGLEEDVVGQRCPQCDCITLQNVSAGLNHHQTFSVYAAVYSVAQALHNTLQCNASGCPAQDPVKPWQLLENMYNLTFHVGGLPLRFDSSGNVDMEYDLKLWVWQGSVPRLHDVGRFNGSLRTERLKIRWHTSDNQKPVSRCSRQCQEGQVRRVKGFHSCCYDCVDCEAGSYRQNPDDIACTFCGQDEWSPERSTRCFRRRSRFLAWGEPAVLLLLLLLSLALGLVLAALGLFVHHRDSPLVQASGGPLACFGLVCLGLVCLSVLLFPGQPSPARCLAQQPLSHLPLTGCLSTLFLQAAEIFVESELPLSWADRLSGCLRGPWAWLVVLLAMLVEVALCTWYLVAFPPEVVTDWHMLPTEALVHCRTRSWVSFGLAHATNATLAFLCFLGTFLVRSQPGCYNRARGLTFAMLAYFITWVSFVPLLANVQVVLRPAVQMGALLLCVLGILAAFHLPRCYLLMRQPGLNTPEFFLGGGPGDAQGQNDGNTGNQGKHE
The settings on record: relative sweetness on a weight comparison basis to sucrose (=1.0).

`OC[C@H]1O[C@H](O[C@]2(CCl)O[C@H](CCl)[C@@H](O)[C@@H]2O)[C@H](O)[C@@H](O)[C@H]1Cl` [sucralose]: the Gut hormone release result in data set [1] and in data set [2] was “no effect” each time.

Take `OCCN1C[C@H](O)[C@@H](O)[C@H](O)[C@H]1CO` [miglitol]: the “Post-prandial GLP-1 levels” value in data set [3] was “increase”. Moreover, the “Increase in GLP-1, interaction with administration of a DPP-IV inhibitor” value in data set [4] was “synergistic”.

For the compound `C=C1C[C@@]23CC[C@H]4[C@@](C)(CCC[C@@]4(C)C(=O)O[C@@H]4O[C@H](CO)[C@@H](O)[C@H](O)[C@H]4O)[C@@H]2CC[C@]1(O[C@@H]1O[C@H](CO)[C@@H](O)[C@H](O[C@@H]2O[C@H](CO)[C@@H](O)[C@H](O)[C@H]2O)[C@H]1O[C@@H]1O[C@H](CO)[C@@H](O)[C@H](O)[C@H]1O)C3` [Rebaudioside A (4), Rebaudioside A], the “Gut hormones in the circulation” value in data set [5] is “no alterations”.

As to `N[C@@H](CCC(=O)O)C(=O)O` [glutamate], in data set [6], the Abdominal fat entry was “reduced abdominal fat” and the Weight gain entry is listed as “decreased weight gain”.

Consider “GLP-2: gut hormone administered in patients with jejunostomy (HADGSFSDEMNTILDNLAARDFINWLIQTKITD; Glucagon-like peptide 2; UniProt P01275 146-178, looked up)”, for which, in data set [7], the “Gastric emptying of solids and liquids” value is given as “prolong”; the “Intestinal absorption of energy and intestinal wet weight absorption” value is listed as “improve”.

Regarding `C=C(C)C1CC=C(/C=N/O)CC1` (centres unmarked) [Perillartine (10), Perillartine], the Sweetness/potency in data set [8] is 370.

For the compound Dulcoside A [Dulcoside A (15)], the Sweetness/potency in data set [8] is reported as 30.
